Data from patent US7914769B2, “Compounds for treating human papillomavirus” (priority 2004, dated 2011).

Tests used:
HPV E6 protein = HPV E6 protein (Human papillomavirus type 16, UniProt P03126); experiment: In vitro p53 degradation assay (E6 and p53 made in rabbit reticulocyte lysate)
E6 = E6 (Human papillomavirus type 16, UniProt P03126); experiment: E6 inhibition (IC50, assay not specified); format: biochemical
Source text: In some embodiments, the interaction of a compound described herein with E6 protein can be assayed in vitro, using routine techniques. In some in vitro assays, the ability of a compound described herein to inhibit the binding of E6 protein to an E6 binding protein can be tested. For example, the E6 protein can be labeled, e.g., radiolabeled, mixed with a compound described herein, and the binding of E6 protein to a binding protein, e.g., E6BP or E6AP, can be determined. Binding efficiency can be calculated as percent input bound minus background. Other in vitro assays can involve indirect measurements of the ability of a compound described herein to inhibit the binding of E6 protein to an E6 binding protein. For example, in vitro p53 degradation experiments can be performed, e.g., as described by Crook et al. (Cell, 67:547-556 (1991)). The IC50 for binding and p53 degradation for the compounds described herein can be tabulated using routine methods.
“IC50” as used herein is the concentration of a compound that produces half-maximal inhibition of protein activity, e.g., E6 activity.

Chain of E6 (P03126 whole entry): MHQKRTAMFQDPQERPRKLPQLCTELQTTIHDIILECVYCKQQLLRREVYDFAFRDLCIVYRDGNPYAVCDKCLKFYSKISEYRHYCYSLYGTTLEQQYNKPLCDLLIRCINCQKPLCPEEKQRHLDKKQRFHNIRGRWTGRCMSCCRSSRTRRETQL
Chain of HPV E6 protein (P03126 whole entry): as above

For `CCN(C(=O)c1cc2ccccc2cc1O)c1ccccc1`, the IC50 (HPV E6 protein) was 1 to 2 µM and the IC50 (E6) was 0.1 to 0.2 µM.
